Laboratory results: ChEMBL document CHEMBL4266064, “B-973, a Novel α7 nAChR Ago-PAM: Racemic and Asymmetric Synthesis, Electrophysiological Studies, and in Vivo Evaluation” (ACS Med Chem Lett, 2018)
Calls of active or inactive are those of the source. The rule behind the calls is not given here.

How the values were obtained:
[1] = target: Neuronal acetylcholine receptor subunit alpha-7 (Homo sapiens) (UniProt P36544); test: (§1) Positive allosteric modulation of human alpha7 nAChR expressed in Xenopus laevis oocytes assessed as increase in acetyl choline-evoked currents at 10 to 100 uM treated for 21 secs followed by compound washout measured after 181 secs by electrophysiology method; format: cell-based
Sequence of Neuronal acetylcholine receptor subunit alpha-7 (Homo sapiens) (P36544 whole entry): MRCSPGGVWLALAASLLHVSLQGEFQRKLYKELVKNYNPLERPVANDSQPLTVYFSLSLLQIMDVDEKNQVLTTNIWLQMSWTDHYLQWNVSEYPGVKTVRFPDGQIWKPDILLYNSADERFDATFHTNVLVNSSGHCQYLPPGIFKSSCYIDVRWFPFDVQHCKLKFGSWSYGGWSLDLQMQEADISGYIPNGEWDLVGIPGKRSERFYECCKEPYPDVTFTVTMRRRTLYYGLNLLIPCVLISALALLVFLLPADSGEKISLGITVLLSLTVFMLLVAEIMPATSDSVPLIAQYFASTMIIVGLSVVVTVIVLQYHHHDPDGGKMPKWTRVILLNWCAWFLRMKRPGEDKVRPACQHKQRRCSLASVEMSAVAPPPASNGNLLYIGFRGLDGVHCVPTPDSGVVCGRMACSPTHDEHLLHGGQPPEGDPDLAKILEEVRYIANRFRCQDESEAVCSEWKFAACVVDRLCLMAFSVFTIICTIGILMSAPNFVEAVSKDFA

Mus musculus [2] = test: Antinociceptive activity in formalin-induced nociception pain ICR mouse model assessed as reduction in paw edema at 3 to 10 mg/kg, ip administered 15 mins prior to formalin challenge measured after 1 hr by calliper method; format: functional, organism-based
[3] = target: Neuronal acetylcholine receptor subunit alpha-7 (Homo sapiens) (UniProt P36544); test: as §1, with “at” for “at 10 to”, “pretreated followed by co-treatment with acetyl choline” for “treated”, “and subsequent” for “followed by”; format: cell-based
Mus musculus [4] = test: Antinociceptive activity in formalin-induced nociception pain ICR mouse model assessed as reduction in time spent licking in hind paw at 10 mg/kg, ip administered 15 mins prior to formalin challenge measured after 20 to 45 mins in presence of alpha7 nAChR antagonist MLA; format: functional, organism-based
Mus musculus [5] = test: Antinociceptive activity in formalin-induced nociception pain ICR mouse model assessed as reduction in time spent licking in hind paw at 10 mg/kg, ip administered 15 mins prior to formalin challenge measured up to 5 mins; format: functional, organism-based
Mus musculus [6] = test: Antinociceptive activity in ip dosed formalin-induced nociception pain ICR mouse model assessed as reduction in time spent licking in hind paw administered 15 mins prior to formalin challenge measured after 20 to 45 mins; format: functional, organism-based
Mus musculus [7] = test: Antinociceptive activity in formalin-induced nociception pain ICR mouse model assessed as reduction in time spent licking in hind paw at 10 mg/kg, ip administered 15 mins prior to formalin challenge measured up to 5 mins in presence of alpha7 nAChR antagonist MLA; format: functional, organism-based
[8] = target: Neuronal acetylcholine receptor subunit alpha-7 (Homo sapiens) (UniProt P36544); test: as §1, with “10” for “10 to 100”, “pretreated followed by co-treatment with acetyl choline” for “treated”, “and subsequent” for “followed by”; format: cell-based

| SMILES | Activity [1] | Activity (Mus musculus [2]) | Activity [3] | Activity (Mus musculus [4]) | Activity (Mus musculus [5]) | Activity (Mus musculus [6]) | Activity (Mus musculus [7]) | Activity [8] |
| --- | --- | --- | --- | --- | --- | --- | --- | --- |
| C[C@H](NC(=O)CCc1ccc(F)c(F)c1)c1cncc(N2CCN(c3ccccn3)CC2)n1 | Active | Active | Active | inactive | Active | Dose-dependent effect | inactive | Active |
| C[C@@H](NC(=O)CCc1ccc(F)c(F)c1)c1cncc(N2CCN(c3ccccn3)CC2)n1 | inactive | – | inactive | – | – | – | – | – |
